From US20240034761A1, “REGENERATION OF MAMMALIAN TISSUES USING SYNTHETIC IMMODULINS” (priority 2022, published 2024) come the findings set out here.

Experiment [1] in a line: Plate binding of FITC-labelled heparin to immobilised biotinylated peptides. To be noted: 400 ng peptide/well, 1 ug FITC-heparin, PBS; normalized to immX3 peptide binding = 100. As for the experimental part: (§1) Effects of pH, PIP2 and size classes: Streptavidin-coated 96-well plates (G-Biosciences, St. Louis, MO) were pre-loaded with biotinylated peptides [see Example 1] at 400 ng/well, at room temperature for 60 minutes. The plate was washed with PBS buffer and then 1 ug FITC-labelled heparin or hyaluronic acid (FITC-HMW-HA) in 100 uL PBS buffer was added per well (all tests done in quadruplicate). Incubation proceeded for 90 minutes at room temperature, followed by two PBS washes. The plate was read in a standard laboratory fluorometer (488/525 nm exitation/[…]) and the counts normalized for immX3 peptide binding=100. Values statistically above background are shown in bold font. **p<0.05 versus immX3AVD.

A short description of experiment [2]: Plate binding of FITC-labelled hyaluronic acid to immobilised biotinylated peptides. To be noted: 400 ng peptide/well, 1 ug FITC-HMW-HA, PBS; normalized to immX3 peptide binding = 100. As for the experimental part:
as §1

In a further experiment the target is T1, recombinant CD44 protein (Homo sapiens, UniProt P16070).
T1 construct: purchased Abcam, Waltham, MA
Description: Third binding experiment: CD44 binding to peptide/holotransferrin/hyaluronan complexes. To be noted: for CD44 immunoreactivity, 1.5 ug/w HMW-HA: immX3AVD + 1.5 ug HMW-HA set to 100 AU; for CD44 immunoreactivity, CONTROL: no hyaluronan, 100 ng/well CD44. As for the experimental part: as §1
A third binding experiment was done as described above using immX3AVD peptide with or without 10 ug/well holotransferrin (holoTf) plus either 10 ug/well LMW-HA or either 1.5 ug or 10 ug HMW-HA/well in the binding step, followed by a buffer wash step. 100 ng/well pure recombinant CD44 protein (Abcam, Waltham, MA) was then added to the indicated wells, incubated for 60 minutes at room temperature and the plate was washed with buffer. Anti-CD44 monoclonal antibody (Abcam, Waltham, MA) was added towells at 1:200, incubated for 60 minutes at room temperature and the plate was then washed and developed by secondary antibody and TMB detection as recommended by the manufacturer. CD44 immunoreactivity was expressed in arbitrary immunoreactivity units (AU), with **p<0.05 versus immx3AVD+1.5 ug HMW-HA control, which was set to=100 AU.

Marks after values point to notes of the source that are not given here. Peptide text beside a SMILES is read from it.

T1 sequence (P16070 21-742, species assumed): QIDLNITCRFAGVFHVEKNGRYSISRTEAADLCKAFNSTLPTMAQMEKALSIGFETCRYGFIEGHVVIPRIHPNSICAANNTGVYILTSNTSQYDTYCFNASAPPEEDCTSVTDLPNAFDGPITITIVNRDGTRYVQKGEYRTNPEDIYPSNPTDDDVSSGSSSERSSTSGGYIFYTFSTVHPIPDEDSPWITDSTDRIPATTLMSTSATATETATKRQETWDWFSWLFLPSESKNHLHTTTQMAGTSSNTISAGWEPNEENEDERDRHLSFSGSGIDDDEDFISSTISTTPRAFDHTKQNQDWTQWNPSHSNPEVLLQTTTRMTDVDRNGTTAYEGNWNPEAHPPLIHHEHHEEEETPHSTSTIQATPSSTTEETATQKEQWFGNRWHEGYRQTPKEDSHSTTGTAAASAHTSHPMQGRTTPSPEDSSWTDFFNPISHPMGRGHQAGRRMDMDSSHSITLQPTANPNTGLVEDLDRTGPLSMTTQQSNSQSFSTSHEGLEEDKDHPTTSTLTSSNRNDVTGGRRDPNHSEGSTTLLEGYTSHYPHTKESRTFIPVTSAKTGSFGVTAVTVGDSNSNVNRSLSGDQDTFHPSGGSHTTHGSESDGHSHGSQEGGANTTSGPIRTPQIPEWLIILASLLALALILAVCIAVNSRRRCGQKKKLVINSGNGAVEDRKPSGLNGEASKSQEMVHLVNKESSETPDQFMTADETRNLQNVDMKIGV

For `CC(C)[C@H](NC(=O)[C@H](C)NC(=O)[C@H](Cc1c[nH]c2ccccc12)NC(=O)[C@H](CS)NC(=O)[C@H](Cc1ccccc1)NC(=O)CNC(=O)[C@H](CCCNC(=N)N)NC(=O)[C@H](CCCCN)NC(=O)[C@H](CCCNC(=N)N)NC(=O)CNC(=O)[C@H](CCCCN)NC(=O)[C@H](CO)NC(=O)[C@@H]1CCCN1C(=O)[C@H](CCCNC(=N)N)NC(=O)[C@H](CS)NC(=O)[C@H](CCC(N)=O)NC(=O)[C@H](CCCCN)NC(=O)[C@H](CCCCN)NC(=O)[C@H](CCCCN)NC(=O)[C@H](Cc1ccc(O)cc1)NC(=O)[C@H](Cc1ccccc1)NC(=O)CNC(=O)[C@H](CCCCN)NC(=O)[C@@H](N)CCCCN)C(=O)N[C@@H](CC(=O)O)C(=O)O` [immX3AVD] (H-KKGFYKKKQCRPSKGRKRGFCWAVD-OH), the “Heparin binding (fluorescence counts)” value in experiment [1] amounted to 100.0 ± 4.7. In experiment [2], the “Hyaluronate binding (fluorescence counts)” value is listed as 100.0 ± 22.8. Moreover, at recombinant CD44 protein (pH 5.2), the “CD44 immunoreactivity, 10 ug/w HMW-HA” value was found to be 105.1 ± 11.4 AU; the “CD44 immunoreactivity, 10 ug/w LMW-HA” value came out at 102.6 ± 17.9 AU; the “CD44 immunoreactivity, 1.5 ug/w HMW-HA” value stood at 100.0 ± 4.6 AU; the “CD44 immunoreactivity, CONTROL” value is reported as 13.2 ± 22.0** AU. In addition, at recombinant CD44 protein (pH 7.4), the “CD44 immunoreactivity, 10 ug/w HMW-HA” value was 101.1 ± 4.9 AU; the “CD44 immunoreactivity, 10 ug/w LMW-HA” value was 103.0 ± 19.4 AU; the “CD44 immunoreactivity, 1.5 ug/w HMW-HA” value worked out at 100.0 ± 15.5 AU; the “CD44 immunoreactivity, CONTROL” value is 19.6 ± 13.0** AU.
